For the assay, the system named is SZ95 sebocytes. In words: Detection of lipids (nile red fluorescence) in SZ95 sebocytes. Conditions: for production of neutral (sebaceous) lipids: 24 vs 48 hours. It is filed as cell-based, human. The method, then:
C., Seltmann, H., Neitzel, H. & Orfanos, C. E. (1999) J. Invest. Dermatol. 113, 1011-1020], were maintained in Sebomed Basal Medium (Biochrom, Berlin) supplemented with 5 ng/ml human epidermal growth factor (Sigma), 10% heat inactivated FCS (Biochrom GmbH, Berlin, Germany), 50 ug/ml gentamicin (GIBCO/BRL), and 1 mM Ca2+, in a humidified atmosphere of 5% CO2 at 37° C. Shortly before the experiments were performed, BSA-medium [constituted of Sebomed Basal Medium supplemented with 1 mg/ml fatty acid-free BSA (Boehringer Mannheim), 1 mM Ca2+, and 10^-6 M linoleic acid (Sigma)] or Sebomed Complete Medium (Biochrom) was added to the cells. The SZ95 human sebocytes used for the experiments were between passages 31 and 35. The cells were subcultured at 60-70% confluence. The cultures were maintained at 37° C. in a humidified 5% CO2 incubator and the medium was replaced every 2-3 days.
The cells were cultured in 96-well tissue culture plates at a density of 2,000 cells per well for 2 days. The wells were then washed with PBS, and Sebomed Complete Medium was added. After 2 days, the medium was harvested, and fresh medium without or with INDIP peptide (SEQ ID NO: 2) at a concentration of 0, 0.1, 1, 10, or 20 μM in the presence and absence of Linoleic acid (5×10^−5 and 10^−4 M) and Testosterone (2×10^−8 M) was given to the cells. The supernatants were harvested 24 or 48 h later; the wells were washed twice with PBS, and 100 μl of a 10 μg/ml nile red solution in PBS was added to each well. 10 uM of scrambled INDIP peptide (i.e. a scrambled version of SEQ ID NO: 2) was used as the negative control peptide. The plates were then incubated at 37° C. for 30 min, and the released fluorescence was read on a Molecular Devices SPECTRAmax Gemini spectrofluorometer. The results are presented as percentages of the absolute fluorescence units in comparison with the controls, using 485 nm excitation and 565 nm emission filters for neutral lipids and 540 nm excitation and 620 nm emission filters for polar lipids. Experiments were performed in triplicate, with 10 wells evaluated for each data point in each experiment.

Regarding “YGRKKRRQRRRGEPHKFKREW ((1)..(11) Tat; (12)..(21) Insig-1) [INDIP peptide (SEQ ID NO: 2), PTD-fused (TAT protein transduction domain) Insig-1 ubiquitination region peptide]”, the “production of neutral (sebaceous) lipids” value is “significantly reduced” (10 μM peptide, occasionally, absence or presence of linoleic acid and testosterone); “significantly reduced” (20 μM peptide, greater effect as time progressed, absence or presence of linoleic acid and testosterone). For the same sequence, where the note is “all conditions tested, with and without linoleic acid and testosterone”, the sebaceous differentiation result is reported as “able to reduce”. Besides, for the setting “application to SZ95 sebocytes in vitro”, the lipid production entry is “Significant Reduction”. In addition, the “polar lipids (membrane synthesis, synthetic activity of the cells)” value (concomitant with the neutral lipid reduction, absence or presence of linoleic acid and testosterone) is “concomitant reduction”.
